Where a name gives a salt, the structure may show the parent alone.
Biological target: T1, human EP1 receptor (Homo sapiens, UniProt P34995)
T1 construct: expressed in transfected cells; host or cells: CHO-K1
T1 sequence (P34995 1-402): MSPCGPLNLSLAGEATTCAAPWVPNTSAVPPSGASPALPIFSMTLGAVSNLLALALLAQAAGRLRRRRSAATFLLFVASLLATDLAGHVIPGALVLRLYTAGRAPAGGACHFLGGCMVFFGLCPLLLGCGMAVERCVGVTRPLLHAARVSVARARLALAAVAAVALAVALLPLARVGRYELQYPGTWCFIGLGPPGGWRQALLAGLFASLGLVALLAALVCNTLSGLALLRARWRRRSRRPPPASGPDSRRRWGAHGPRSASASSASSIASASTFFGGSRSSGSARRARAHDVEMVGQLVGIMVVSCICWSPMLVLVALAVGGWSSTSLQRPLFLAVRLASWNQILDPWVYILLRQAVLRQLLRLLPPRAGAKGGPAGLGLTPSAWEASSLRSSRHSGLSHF
Assay: human EP1 calcium mobilisation assay
Type: cell-based
Conditions: negative logarithm10 of the antagonist dissociation constant; CHO-K1 cells, PGE2; free bases or sodium salts; averages of a number of experiments; read-out: functional pKi value (converted)
Description: Briefly, the antagonist properties of compounds are assessed by their ability to inhibit the mobilisation of intracellular calcium ([Ca^2+]i) in response to activation of EP1 or EP3 receptors by the natural agonist hormone prostaglandin E2 (PGE2). Increasing concentrations of antagonist reduce the amount of calcium that a given concentration of PGE2 can mobilise. The net effect is to displace the PGE2 concentration-effect curve to higher concentrations of PGE2. The amount of calcium produced is assessed using a calcium-sensitive fluorescent dye such as Fluo-4, AM and a suitable instrument such as a Fluorimetric Imaging Plate Reader (FLIPR). Increasing amounts of [Ca^2+]i produced by receptor activation increase the amount of fluorescence produced by the dye and give rise to an increasing signal. The signal may be detected using the FLIPR instrument and the data generated may be analysed with suitable curve-fitting software.
The human EP1 or EP3 calcium mobilisation assay (hereafter referred to as ‘the calcium assay’) utilises Chinese hamster ovary-K1 (CHO-K1) cells into which a stable (pCIN; BioTechniques 20 (1996): 102-110) vector containing either EP1 or EP3 cDNA has previously been transfected. Cells are cultured in suitable flasks containing culture medium such as DMEM:F-12 supplemented with 10% v/v foetal calf serum, 2 mM L-glutamine, 0.25 mg/ml geneticin, 100 μM flurbiprofen and 10 μg/ml puromycin.
For assay, cells are harvested using a proprietary reagent that dislodges cells such as Versene. Cells are re-suspended in a suitable quantity of fresh culture media for introduction into a 384-well plate. Following incubation for 24 hours at 37° C. the culture media is replaced with a medium containing Fluo-4 and the detergent pluronic acid, and a further incubation takes place. Concentrations of compounds are then added to the plate in order to construct concentration-effect curves. This may be performed on the FLIPR in order to assess the agonist properties of the compounds. Concentrations of PGE2 are then added to the plate in order to assess the antagonist properties of the compounds.
The data so generated may be analysed by means of a computerised curve-fitting routine. The concentration of compound that elicits a half-maximal inhibition of the calcium mobilisation induced by PGE2 (plC50) may then be estimated.

Compound	Ki [nM]
Cc1cc(OC(=O)NC2CCCCC2)nn1Cc1cc(Cl)ccc1OCc1ccccc1 [Example 43, 1-({5-Chloro-2-[(phenylmethyl)oxy]phenyl}methyl)-5-methyl-1H-pyrazol-3-yl cyclohexylcarbamate]	> 1000
Cc1cc(OC(=O)NC2CCCCC2)nn1Cc1cc(Cl)ccc1OCC(C)C [Example 51, 1-({5-Chloro-2-[(2-methylpropyl)oxy]phenyl}methyl)-5-methyl-1H-pyrazol-3-yl cyclohexylcarbamate]	> 1000
Cc1cc(OC(=O)NCc2ccc(NC(=O)OC(C)(C)C)cc2)nn1Cc1cc(Cl)ccc1OCc1ccccc1 [Example 56, 1-({5-Chloro-2-[(phenylmethyl)oxy]phenyl}methyl)-5-methyl-1H-pyrazol-3-yl {[4-({[(1,1-dimethylethyl)oxy]carbonyl}amino)phenyl]methyl}carbamate]	> 1000
Cc1cc(OC(=O)NCc2ccc(CNC(=O)OC(C)(C)C)cc2)nn1Cc1cc(Cl)ccc1OCc1ccccc1 [Example 59, 1-({5-Chloro-2-[(phenylmethyl)oxy]phenyl}methyl)-5-methyl-1H-pyrazol-3-yl 1,1-dimethylethyl (benzene-1,4-dildimethanediyl)biscarbamate]	> 1000
Cc1cc(OC(=O)NCc2cccc(NC(=O)OC(C)(C)C)c2)nn1Cc1cc(Cl)ccc1OCc1ccccc1 [Example 60, 1-({5-Chloro-2-[(phenylmethyl)oxy]phenyl}methyl)-5-methyl-1H-pyrazol-3-yl {[3-({[(1,1-dimethylethyl)oxy]carbonyl}amino)phenyl]methyl}carbamate]	> 1000
Cc1cc(OC(=O)NCc2cccc(CNC(=O)OC(C)(C)C)c2)nn1Cc1cc(Cl)ccc1OCc1ccccc1 [Example 61, 1-({5-Chloro-2-[(phenylmethyl)oxy]phenyl}methyl)-5-methyl-1H-pyrazol-3-yl 1,1-dimethylethyl (benzene-1,3-diyldimethanediyl)biscarbamate]	> 1000
COC(=O)Nc1cc(C)n(Cc2cc(Cl)ccc2OCc2ccccc2)n1 [Example 65, Methyl[1-({5-chloro-2-[(phenylmethyl)oxy]phenyl}methyl)-5-methyl-1H-pyrazol-3-yl]carbamate]	> 1000
CCOC(=O)Nc1cc(C)n(Cc2cc(Cl)ccc2OCc2ccccc2)n1 [Example 66, Ethyl [1-({5-chloro-2-[(phenylmethyl)oxy]phenyl}methyl)-5-methyl-1H-pyrazol-3-yl]carbamate]	> 1000
Cc1cc(NC(=O)c2ccc3c(c2)CCN(C(=O)OC(C)(C)C)CC3)nn1Cc1cc(Cl)ccc1OCC(C)C [Example 97, 1,1-Dimethylethyl 7-({[1-({5-chloro-2-[(2-methylpropyl)oxy]phenyl}methyl)-5-methyl-1H-pyrazol-3-yl]amino}carbonyl)-1,2,4,5-tetrahydro-3H-3-benzazepine-3-carboxylate]	> 1000
Cc1cc(NC(=O)c2ccc3c(c2)CCNCC3)nn1Cc1cc(Cl)ccc1OCC(C)C [Example 98, N-[1-({5-Chloro-2-[(2-methylpropyl)oxy]phenyl}methyl)-5-methyl-1H-pyrazol-3-yl]-2,3,4,5-tetrahydro-1H-3-benzazepine-7-carboxamide hydrochloride]	> 1000
CC(=O)Nc1cc(C)n(Cc2cc(Cl)ccc2OCC(C)C)n1 [Example 103, N-[1-({5-Chloro-2-[(2-methylpropyl)oxy]phenyl}methyl)-5-methyl-1H-pyrazol-3-yl]acetamide]	> 1000
CC(=O)Nc1cc(C)n(Cc2cc(Cl)ccc2OCc2ccccc2)n1 [Example 104, N-[1-({5-Chloro-2-[(phenylmethyl)oxy]phenyl}methyl)-5-methyl-1H-pyrazol-3-yl]acetamide]	> 1000

Other lines, results leading:

Ki [nM]	Compound
> 1000	Cc1cc(NC(=O)Cc2ccccc2)nn1Cc1cc(Cl)ccc1OCc1ccccc1F [Example 120, N-{1-[(5-Chloro-2-{[(2-fluorophenyl)methyl]oxy}phenyl)methyl]-5-methyl-1H-pyrazol-3-yl}-2-phenylacetamide]
> 1000	Cc1cc(NC(=O)Cc2ccccc2)nn1Cc1cc(Cl)ccc1OCc1ccc(F)cc1 [Example 121, N-{1-[(5-Chloro-2-{[(4-fluorophenyl)methyl]oxy}phenyl)methyl]-5-methyl-1H-pyrazol-3-yl}-2-phenylacetamide]
> 1000	Cc1cc(NC(=O)Cc2ccccc2)nn1Cc1cc(Cl)ccc1OCc1ccc(F)cc1F [Example 122, N-{1-[(5-Chloro-2-{[(2,4-difluorophenyl)methyl]oxy}phenyl)methyl]-5-methyl-1H-pyrazol-3-yl}-2-phenylacetamide]
> 1000	Cc1cc(NC(=O)Cc2ccccc2)nn1Cc1cc(Cl)ccc1OCc1ccc(F)c(F)c1F [Example 123, N-{1-[(5-Chloro-2-{[(2,3,4-trifluorophenyl)methyl]oxy}phenyl)methyl]-5-methyl-1H-pyrazol-3-yl}-2-phenylacetamide]
> 1000	Cc1cc(NC(=O)Cc2ccccc2)nn1Cc1cc(Cl)ccc1OCc1ccc(F)cc1Cl [Example 124, N-{1-[(5-Chloro-2-{[(2-chloro-4-fluorophenyl)methyl]oxy}phenyl)methyl]-5-methyl-1H-pyrazol-3-yl}-2-phenylacetamide]
> 1000	Cc1cc(NC(=O)Cc2ccccc2)nn1Cc1cc(Cl)ccc1OCc1ccc(Cl)cc1Cl [Example 125, N-{1-[(5-Chloro-2-{[(2,4-dichlorophenyl)methyl]oxy}phenyl)methyl]-5-methyl-1H-pyrazol-3-yl}-2-phenylacetamide]
> 1000	Cc1cc(NC(=O)Cc2ccccc2)nn1Cc1cc(Cl)ccc1OCc1c(F)cc(F)cc1F [Example 127, N-{1-[(5-Chloro-2-{[(2,4,6-trifluorophenyl)methyl]oxy}phenyl)methyl]-5-methyl-1H-pyrazol-3-yl}-2-phenylacetamide]
> 1000	Cc1cc(NC(=O)Cc2ccccc2)nn1Cc1cc(Cl)ccc1OCc1ccc(F)c(F)c1 [Example 128, N-{1-[(5-Chloro-2-{[(3,4-difluorophenyl)methyl]oxy}phenyl)methyl]-5-methyl-1H-pyrazol-3-yl}-2-phenylacetamide]
> 1000	Cc1cc(NC(=O)Cc2ccccc2)nn1Cc1cc(Cl)ccc1OCc1ccccc1Cl [Example 129, N-{1-[(5-Chloro-2-{[(2-chlorophenyl)methyl]oxy}phenyl)methyl]-5-methyl-1H-pyrazol-3-yl}-2-phenylacetamide]
> 1000	Cc1cc(NC(=O)c2ccccn2)nn1Cc1cc(Cl)ccc1OCc1ccccc1 [Example 139, N-[1-({5-Chloro-2-[(phenylmethyl)oxy]phenyl}methyl)-5-methyl-1H-pyrazol-3-yl]-2-pyridinecarboxamide]
> 1000	Cc1cc(NC(=O)c2ccco2)nn1Cc1cc(Cl)ccc1OCc1ccccc1 [Example 140, N-[1-({5-Chloro-2-[(phenylmethyl)oxy]phenyl}methyl)-5-methyl-1H-pyrazol-3-yl]-2-furancarboxamide]
> 1000	Cc1cc(NC(=O)c2ccc(C#N)cc2)nn1Cc1cc(Cl)ccc1OCc1ccccc1 [Example 142, N-[1-({5-Chloro-2-[(phenylmethyl)oxy]phenyl}methyl)-5-methyl-1H-pyrazol-3-yl]-4-cyanobenzamide]
> 1000	Cc1cc(NC(=O)c2cnccn2)nn1Cc1cc(Cl)ccc1OCc1ccccc1 [Example 144, N-[1-({5-Chloro-2-[(phenylmethyl)oxy]phenyl}methyl)-5-methyl-1H-pyrazol-3-yl]-2-pyrazinecarboxamide]
> 1000	Cc1cc(NC(=O)c2cccnc2)nn1Cc1cc(Cl)ccc1OCc1ccccc1 [Example 145, N-[1-({5-Chloro-2-[(phenylmethyl)oxy]phenyl}methyl)-5-methyl-1H-pyrazol-3-yl]-3-pyridinecarboxamide]
> 1000	Cc1cc(NC(=O)Cc2cccnc2)nn1Cc1cc(Cl)ccc1OCc1ccccc1 [Example 148, N-[1-({5-Chloro-2-[(phenylmethyl)oxy]phenyl}methyl)-5-methyl-1H-pyrazol-3-yl]-2-(3-pyridinyl)-acetamide]

Source: patent US20090239845A1, “PYRAZOLE COMPOUNDS AS PROSTAGLANDIN RECEPTORS LIGANDS” (priority 2005, published 2009)
